# Assay results reported in PMC8699473, “An Easily Expandable Multi-Drug LC-MS Assay for the Simultaneous Quantification of 57 Oral Antitumor Drugs in Human Plasma” (Cancers, 2021).
# How the values were obtained:
# [1] = Freeze-thaw stability in spiked pooled human plasma; assay type: physicochemical
# [2] = Autosampler stability of ready for injection samples; assay type: physicochemical, human
# [3] = parameters: method as in supplement references [1-55] as printed per drug; details: minimum steady-state blood plasma concentration after multiple dose administration; ref supplement references [1-55] per drug; cited from earlier work
# [4] = Long-term stability in spiked pooled human plasma
# [5] = Short-term stability in spiked pooled human plasma (bench-top, 4 °C, 56 °C)
smiles,measurement,setting,value
C[C@H]1Oc2cc(cnc2N)-c2c(nn(C)c2C#N)CN(C)C(=O)c2ccc(F)cc21 [Lorlatinib],Freeze-Thaw Accuracy [%],[1]; validation standard 2xLLOV,95.0%
same,Freeze-Thaw Accuracy [%],[1]; validation standard LLOV,96.0%
same,Freeze-Thaw Accuracy [%],[1]; validation standard MOV,95.2%
same,Freeze-Thaw Accuracy [%],[1]; validation standard ULOV,97.6%
same,"Autosampler (24h, 4°C) Accuracy [%]",[2]; validation standard 2xLLOV,101.6%
same,"Autosampler (72h, 4°C) Accuracy [%]",[2]; validation standard 2xLLOV,99.0%
same,"Autosampler (24h, 4°C) Accuracy [%]",[2]; validation standard LLOV,96.7%
same,"Autosampler (72h, 4°C) Accuracy [%]",[2]; validation standard LLOV,94.8%
same,"Autosampler (24h, 4°C) Accuracy [%]",[2]; validation standard MOV,102.0%
same,"Autosampler (72h, 4°C) Accuracy [%]",[2]; validation standard MOV,100.8%
same,"Autosampler (24h, 4°C) Accuracy [%]",[2]; validation standard ULOV,99.7%
same,"Autosampler (72h, 4°C) Accuracy [%]",[2]; validation standard ULOV,99.2%
same,cmin,[3],150 ng/mL
same,"Long-term stability, 1 month, -20°C Accuracy [%]",[4]; validation standard 2xLLOV,89.2%
same,"Long-term stability, 1 month, -80°C Accuracy [%]",[4]; validation standard 2xLLOV,84.9%
same,"Long-term stability, 2 month, -20°C Accuracy [%]",[4]; validation standard 2xLLOV,91.9%
same,"Long-term stability, 2 month, -80°C Accuracy [%]",[4]; validation standard 2xLLOV,91.9%
same,"Long-term stability, 3 month, -20°C Accuracy [%]",[4]; validation standard 2xLLOV,91.7%
same,"Long-term stability, 3 month, -80°C Accuracy [%]",[4]; validation standard 2xLLOV,90.8%
same,"Long-term stability, 6 weeks, 4°C, without daylight Accuracy [%]",[4]; validation standard 2xLLOV,96.7%
same,"Long-term stability, 1 month, -20°C Accuracy [%]",[4]; validation standard LLOV,87.9%
same,"Long-term stability, 1 month, -80°C Accuracy [%]",[4]; validation standard LLOV,82.6%
same,"Long-term stability, 2 month, -20°C Accuracy [%]",[4]; validation standard LLOV,90.0%
same,"Long-term stability, 2 month, -80°C Accuracy [%]",[4]; validation standard LLOV,87.6%
same,"Long-term stability, 3 month, -20°C Accuracy [%]",[4]; validation standard LLOV,95.7%
same,"Long-term stability, 3 month, -80°C Accuracy [%]",[4]; validation standard LLOV,93.2%
same,"Long-term stability, 6 weeks, 4°C, without daylight Accuracy [%]",[4]; validation standard LLOV,97.1%
same,"Long-term stability, 1 month, -20°C Accuracy [%]",[4]; validation standard MOV,88.5%
same,"Long-term stability, 1 month, -80°C Accuracy [%]",[4]; validation standard MOV,87.8%
same,"Long-term stability, 2 month, -20°C Accuracy [%]",[4]; validation standard MOV,93.9%
same,"Long-term stability, 2 month, -80°C Accuracy [%]",[4]; validation standard MOV,91.2%
same,"Long-term stability, 3 month, -20°C Accuracy [%]",[4]; validation standard MOV,90.9%
same,"Long-term stability, 3 month, -80°C Accuracy [%]",[4]; validation standard MOV,89.2%
same,"Long-term stability, 6 weeks, 4°C, without daylight Accuracy [%]",[4]; validation standard MOV,93.7%
same,"Long-term stability, 1 month, -20°C Accuracy [%]",[4]; validation standard ULOV,90.6%
same,"Long-term stability, 1 month, -80°C Accuracy [%]",[4]; validation standard ULOV,87.4%
same,"Long-term stability, 2 month, -20°C Accuracy [%]",[4]; validation standard ULOV,91.4%
same,"Long-term stability, 2 month, -80°C Accuracy [%]",[4]; validation standard ULOV,91.7%
same,"Long-term stability, 3 month, -20°C Accuracy [%]",[4]; validation standard ULOV,91.0%
same,"Long-term stability, 3 month, -80°C Accuracy [%]",[4]; validation standard ULOV,89.2%
same,"Long-term stability, 6 weeks, 4°C, without daylight Accuracy [%]",[4]; validation standard ULOV,91.4%
same,"Short-time stability (1h, 56°C) Accuracy [%]",[5]; validation standard 2xLLOV,60.0%
same,"Short-time stability (24h, 4°C, without daylight) Accuracy [%]",[5]; validation standard 2xLLOV,99.8%
same,"Short-time stability (24h, RT, with daylight) Accuracy [%]",[5]; validation standard 2xLLOV,98.9%
same,"Short-time stability (24h, RT, without daylight) Accuracy [%]",[5]; validation standard 2xLLOV,99.6%
same,"Short-time stability (1h, 56°C) Accuracy [%]",[5]; validation standard LLOV,54.3%
same,"Short-time stability (24h, 4°C, without daylight) Accuracy [%]",[5]; validation standard LLOV,98.8%
same,"Short-time stability (24h, RT, with daylight) Accuracy [%]",[5]; validation standard LLOV,96.4%
same,"Short-time stability (24h, RT, without daylight) Accuracy [%]",[5]; validation standard LLOV,97.8%
same,"Short-time stability (1h, 56°C) Accuracy [%]",[5]; validation standard MOV,57.8%
same,"Short-time stability (24h, 4°C, without daylight) Accuracy [%]",[5]; validation standard MOV,101.8%
same,"Short-time stability (24h, RT, with daylight) Accuracy [%]",[5]; validation standard MOV,100.2%
same,"Short-time stability (24h, RT, without daylight) Accuracy [%]",[5]; validation standard MOV,99.2%
same,"Short-time stability (1h, 56°C) Accuracy [%]",[5]; validation standard ULOV,50.7%
same,"Short-time stability (24h, 4°C, without daylight) Accuracy [%]",[5]; validation standard ULOV,97.0%
same,"Short-time stability (24h, RT, with daylight) Accuracy [%]",[5]; validation standard ULOV,100.4%
same,"Short-time stability (24h, RT, without daylight) Accuracy [%]",[5]; validation standard ULOV,99.9%
Cc1cn(-c2cc(NC(=O)c3ccc(C)c(Nc4nccc(-c5cccnc5)n4)c3)cc(C(F)(F)F)c2)cn1 [Nilotinib],Freeze-Thaw Accuracy [%],[1]; validation standard 2xLLOV,98.5%
same,Freeze-Thaw Accuracy [%],[1]; validation standard LLOV,92.8%
same,Freeze-Thaw Accuracy [%],[1]; validation standard MOV,100.9%
same,Freeze-Thaw Accuracy [%],[1]; validation standard ULOV,96.0%
same,"Autosampler (24h, 4°C) Accuracy [%]",[2]; validation standard 2xLLOV,97.8%
same,"Autosampler (72h, 4°C) Accuracy [%]",[2]; validation standard 2xLLOV,101.2%
same,"Autosampler (24h, 4°C) Accuracy [%]",[2]; validation standard LLOV,88.1%
same,"Autosampler (72h, 4°C) Accuracy [%]",[2]; validation standard LLOV,92.6%
same,"Autosampler (24h, 4°C) Accuracy [%]",[2]; validation standard MOV,102.7%
same,"Autosampler (72h, 4°C) Accuracy [%]",[2]; validation standard MOV,104.0%
same,"Autosampler (24h, 4°C) Accuracy [%]",[2]; validation standard ULOV,100.3%
same,"Autosampler (72h, 4°C) Accuracy [%]",[2]; validation standard ULOV,102.0%
same,cmin,[3],1165 ng/mL
same,"Long-term stability, 1 month, -20°C Accuracy [%]",[4]; validation standard 2xLLOV,95.1%
same,"Long-term stability, 1 month, -80°C Accuracy [%]",[4]; validation standard 2xLLOV,89.2%
same,"Long-term stability, 2 month, -20°C Accuracy [%]",[4]; validation standard 2xLLOV,96.9%
same,"Long-term stability, 2 month, -80°C Accuracy [%]",[4]; validation standard 2xLLOV,99.7%
same,"Long-term stability, 3 month, -20°C Accuracy [%]",[4]; validation standard 2xLLOV,91.6%
same,"Long-term stability, 3 month, -80°C Accuracy [%]",[4]; validation standard 2xLLOV,92.2%
same,"Long-term stability, 6 weeks, 4°C, without daylight Accuracy [%]",[4]; validation standard 2xLLOV,103.4%
same,"Long-term stability, 1 month, -20°C Accuracy [%]",[4]; validation standard LLOV,91.9%
same,"Long-term stability, 1 month, -80°C Accuracy [%]",[4]; validation standard LLOV,89.8%
same,"Long-term stability, 2 month, -20°C Accuracy [%]",[4]; validation standard LLOV,93.3%
same,"Long-term stability, 2 month, -80°C Accuracy [%]",[4]; validation standard LLOV,97.4%
same,"Long-term stability, 3 month, -20°C Accuracy [%]",[4]; validation standard LLOV,90.5%
same,"Long-term stability, 3 month, -80°C Accuracy [%]",[4]; validation standard LLOV,93.1%
same,"Long-term stability, 6 weeks, 4°C, without daylight Accuracy [%]",[4]; validation standard LLOV,102.0%
same,"Long-term stability, 1 month, -20°C Accuracy [%]",[4]; validation standard MOV,95.6%
same,"Long-term stability, 1 month, -80°C Accuracy [%]",[4]; validation standard MOV,91.9%
same,"Long-term stability, 2 month, -20°C Accuracy [%]",[4]; validation standard MOV,99.1%
same,"Long-term stability, 2 month, -80°C Accuracy [%]",[4]; validation standard MOV,98.0%
same,"Long-term stability, 3 month, -20°C Accuracy [%]",[4]; validation standard MOV,96.9%
same,"Long-term stability, 3 month, -80°C Accuracy [%]",[4]; validation standard MOV,93.1%
same,"Long-term stability, 6 weeks, 4°C, without daylight Accuracy [%]",[4]; validation standard MOV,101.7%
same,"Long-term stability, 1 month, -20°C Accuracy [%]",[4]; validation standard ULOV,94.2%
same,"Long-term stability, 1 month, -80°C Accuracy [%]",[4]; validation standard ULOV,90.9%
same,"Long-term stability, 2 month, -20°C Accuracy [%]",[4]; validation standard ULOV,97.5%
same,"Long-term stability, 2 month, -80°C Accuracy [%]",[4]; validation standard ULOV,97.0%
same,"Long-term stability, 3 month, -20°C Accuracy [%]",[4]; validation standard ULOV,93.1%
same,"Long-term stability, 3 month, -80°C Accuracy [%]",[4]; validation standard ULOV,91.6%
same,"Long-term stability, 6 weeks, 4°C, without daylight Accuracy [%]",[4]; validation standard ULOV,98.0%
same,"Short-time stability (1h, 56°C) Accuracy [%]",[5]; validation standard 2xLLOV,47.8%
same,"Short-time stability (24h, 4°C, without daylight) Accuracy [%]",[5]; validation standard 2xLLOV,101.2%
same,"Short-time stability (24h, RT, with daylight) Accuracy [%]",[5]; validation standard 2xLLOV,107.8%
same,"Short-time stability (24h, RT, without daylight) Accuracy [%]",[5]; validation standard 2xLLOV,108.6%
same,"Short-time stability (1h, 56°C) Accuracy [%]",[5]; validation standard LLOV,28.5%
same,"Short-time stability (24h, 4°C, without daylight) Accuracy [%]",[5]; validation standard LLOV,96.7%
same,"Short-time stability (24h, RT, with daylight) Accuracy [%]",[5]; validation standard LLOV,94.9%
same,"Short-time stability (24h, RT, without daylight) Accuracy [%]",[5]; validation standard LLOV,96.7%
same,"Short-time stability (1h, 56°C) Accuracy [%]",[5]; validation standard MOV,52.5%
same,"Short-time stability (24h, 4°C, without daylight) Accuracy [%]",[5]; validation standard MOV,100.3%
same,"Short-time stability (24h, RT, with daylight) Accuracy [%]",[5]; validation standard MOV,110.2%
same,"Short-time stability (24h, RT, without daylight) Accuracy [%]",[5]; validation standard MOV,114.5%
same,"Short-time stability (1h, 56°C) Accuracy [%]",[5]; validation standard ULOV,44.6%
same,"Short-time stability (24h, 4°C, without daylight) Accuracy [%]",[5]; validation standard ULOV,97.1%
same,"Short-time stability (24h, RT, with daylight) Accuracy [%]",[5]; validation standard ULOV,108.0%
same,"Short-time stability (24h, RT, without daylight) Accuracy [%]",[5]; validation standard ULOV,110.3%
